# Assay results from patent US20210206791.
# Values joined by “and” are separate entries in the source; they are usually repeats but may differ in a detail not shown here. Equal entries are not always repeated. Where two headings read alike, the source gives them in different places.
# Settings: the molecule shown is the open-chain precursor, crosslinker bond, CH3CN/H2O 1:1, 0.1 mM, 25.0 °C
substance,measurement,setting,value
H-Ala-Cys-Tyr-Lys-Arg-Ser-Asp-Phe-Thr-Cys-Gly-Gly-Gly-Ser-NH2?,"ring closure, yield after HPLC",bis-Pd aryl reagent 6b (2 equiv)/Tris pH 7.5,85%
same,"ring closure, yield after HPLC",bis-Pd aryl reagent 6c (2 equiv)/Tris pH 7.5,70%
same,"ring closure, yield after HPLC",bis-Pd aryl reagent 6e (2 equiv)/Tris pH 7.5,100%
same,"ring closure, yield after HPLC",bis-Pd aryl reagent 6d (2 equiv)/Tris pH 7.5,84%
same,"ring closure, yield after HPLC","bis-Pd aryl reagent (2 equiv, not named)/Tris pH 7.5",79% and 92% and 94%
